This note sets out measurements from PMC6495113, “Sesquiterpenoids and 2-(2-phenylethyl)chromones respectively acting as α-glucosidase and tyrosinase inhibitors from agarwood of an Aquilaria plant” (Journal of Enzyme Inhibition and Medicinal Chemistry, 2019).

The target of test [1] is T1, tyrosinase (Agaricus bisporus, UniProt C7FF04). In words: Tyrosinase inhibitory assay (L-tyrosine substrate). The following applies: read-out: tyrosinase inhibitory activity 100 μM (%).
Description: After 5 min pre-incubation of the mixture at 37 °C, 50 µL of 2 mM L-tyrosine in buffer were added and incubated for additional 20 min at 37 °C. The control wells contained DMSO instead of compound, and the blank wells were added with buffer in place of L-tyrosine. […] The percentage inhibition was calculated using the formula as below: % inhibition=[1–(ODcompound–ODblank)/(ODcontrol–ODblank)]×100
The target of test [2] is T2, α-glucosidase (Saccharomyces cerevisiae, UniProt P53341). In words: α-Glucosidase inhibitory assay (p-NPG substrate). Particulars: for inhibition at 750 µM: read-out: α-glucosidase inhibitory activity 750 μM (%).
T2 sequence (P53341 whole entry): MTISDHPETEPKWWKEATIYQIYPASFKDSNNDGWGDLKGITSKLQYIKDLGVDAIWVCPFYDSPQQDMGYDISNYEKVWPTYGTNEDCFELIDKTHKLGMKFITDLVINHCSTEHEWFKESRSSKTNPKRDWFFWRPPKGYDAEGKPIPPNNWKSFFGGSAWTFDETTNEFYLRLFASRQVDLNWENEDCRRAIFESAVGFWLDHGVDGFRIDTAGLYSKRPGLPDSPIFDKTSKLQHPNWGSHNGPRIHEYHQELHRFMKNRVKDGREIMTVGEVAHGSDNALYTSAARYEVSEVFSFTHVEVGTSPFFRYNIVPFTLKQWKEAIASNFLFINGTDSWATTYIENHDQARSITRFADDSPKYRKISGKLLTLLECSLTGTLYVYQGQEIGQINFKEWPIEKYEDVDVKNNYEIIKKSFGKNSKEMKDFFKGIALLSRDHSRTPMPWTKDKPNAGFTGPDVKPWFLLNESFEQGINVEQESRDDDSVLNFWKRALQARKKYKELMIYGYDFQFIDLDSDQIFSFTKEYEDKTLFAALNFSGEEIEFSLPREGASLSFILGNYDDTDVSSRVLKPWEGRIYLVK
Description: The α-glucosidase (G5003, Sigma-Aldrich) was obtained from Saccharomyces cerevisiae and the enzyme inhibitory assay was performed using formerly described method[24] with some modifications. […] The percentage inhibition was calculated using the following equation: % inhibition=[1–(ODcompound–ODblank)/(ODcontrol–ODblank)]×100
For test [3], the target named is T2, α-glucosidase. In words: Kinetic analysis of α-glucosidase inhibition (Lineweaver-Burk, secondary plot). Format: biochemical. The protocol: The α-glucosidase (G5003, Sigma-Aldrich) was obtained from Saccharomyces cerevisiae and the enzyme inhibitory assay was performed using formerly described method[24] with some modifications. […]. The OD values were measured at 405 nm with microplate reader. Acarbose was used as reference compound. The percentage inhibition was calculated using the following equation: % inhibition=[1–(ODcompound–ODblank)/(ODcontrol–ODblank)]×100
(§1) The data were expressed as double-reciprocal Lineweaver − Burk plot and the inhibition constants (KI and KIS) were obtained from secondary plots of slope and y intercept of lines from Lineweaver-Burk plot against inhibitor[25].

Test [4] concerns the target T1, tyrosinase. Kind of test: Kinetic analysis of tyrosinase inhibition (Lineweaver-Burk, secondary re-plots). The test is classed as biochemical, mushroom. On the procedure: . Briefly, 130 µL of tyrosinase (50 U/mL) solvated in 50 mM phosphate buffer (pH: 6.8) were mixed with 20 µL of 2-fold serial dilutions (from 1 mM to 0.03125 mM) of compounds in DMSO, and transferred into a 96-well plate. After 5 min pre-incubation of the mixture at 37 °C, 50 µL of 2 mM L-tyrosine in buffer were added and incubated for additional 20 min at 37 °C. The control wells contained DMSO instead of compound, and the blank wells were added with buffer in place of L-tyrosine. Kojic acid was used as a positive control. The absorbance was measured at 495 nm using microplate reader. The percentage inhibition was calculated using the formula as below: % inhibition=[1–(ODcompound–ODblank)/(ODcontrol–ODblank)]×100
as §1

T1 sequence (C7FF04 1-392): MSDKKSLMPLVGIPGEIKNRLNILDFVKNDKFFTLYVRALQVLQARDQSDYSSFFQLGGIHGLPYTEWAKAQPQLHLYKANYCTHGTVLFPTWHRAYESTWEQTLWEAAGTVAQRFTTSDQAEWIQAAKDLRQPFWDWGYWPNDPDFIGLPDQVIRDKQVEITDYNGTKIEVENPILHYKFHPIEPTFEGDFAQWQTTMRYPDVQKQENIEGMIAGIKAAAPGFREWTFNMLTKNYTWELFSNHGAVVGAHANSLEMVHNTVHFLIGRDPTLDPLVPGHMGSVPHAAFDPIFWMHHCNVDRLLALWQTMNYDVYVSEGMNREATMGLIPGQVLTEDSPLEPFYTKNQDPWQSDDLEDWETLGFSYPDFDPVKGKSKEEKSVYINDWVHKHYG

`C=C1C2CCC3(C(CO)CCC3C1(C)C)C2O` (centres unmarked) [Compound 1, Agarozizanol A]: the inhibition at 100 µM at tyrosinase [1] was less than 30%. Further, the inhibition at 750 µM at α-glucosidase [2] was determined as 37.4 ± 1.4%.
On the same counts, the results for `CC1CCC2C(C)(C)C(CO)C3(O)CCC12C3` (centres unmarked) [Compound 2, Agarozizanol B] are less than 30% and 42 ± 2.7%.
Consider `CC1CCC2C13CCC(C3O)C(C)(O)C2(C)C` (centres unmarked) [Compound 3, Agarozizanol C], for which the inhibition at 100 µM on tyrosinase [1] was less than 30%. Moreover, the inhibition at 750 µM at α-glucosidase [2] was less than 30%.
Consider `CC1CCC2C13CCC(C3)C(O)(CO)C2(C)C` (centres unmarked) [Compound 4, Agarozizanol D], for which, at tyrosinase [1], the inhibition at 100 µM is less than 30%. On α-glucosidase [2], the inhibition at 750 µM turned out to be 49.9 ± 1.8%.
With `CC1=C2CCC(C)C23CCC(C3)C1(C)CO` (centres unmarked) [Compound 5, Agarozizanol E], the “type of inhibition of α-glucosidase” value on α-glucosidase [3] is listed as “uncompetitive inhibitors”. Also, on tyrosinase [1], the inhibition at 100 µM was less than 30%. In addition, at α-glucosidase [2], the inhibition at 750 µM is 93.4 ± 3.1%.
As to `CC1=C2C(O)CC(CO)C23CCC(C3)C1(C)C` (centres unmarked) [Compound 6, Agarozizanol F], the inhibition at 100 µM on tyrosinase [1] is less than 30%. In addition, on α-glucosidase [2], the inhibition at 750 µM was less than 30%.
Turning to `CC1CCC2C13CCC(C3)C(C)(O)C2(C)C` (centres unmarked) [Compound 7, Jinkohol I], the inhibition at 100 µM on tyrosinase [1] was less than 30%. Further, the inhibition at 750 µM on α-glucosidase [2] was 86.9 ± 0.4%.
The matching figures for `CC1CCC2C(C)(C)C(CO)C3CCC12C3` (centres unmarked) [Compound 8, Jinkohol II]: less than 30% and 77.3 ± 1%.
The matching figures for `CC1CCC2C(C)(C)C(C(=O)O)C3CCC12C3` (centres unmarked) [Compound 9, Jinkoholic acid]: less than 30% and 48.9 ± 1.1%.
Consider `CC1=C2CCC(CO)C23CCC(C3)C1(C)C` (centres unmarked) [Compound 10, isokhusenol], for which the inhibition at 100 µM on tyrosinase [1] was less than 30%. The inhibition at 750 µM at α-glucosidase [2] came to 92.1 ± 3.4%.
On the same counts, the results for `COc1ccc(CCc2cc(=O)c3cc(OC)c(O)cc3o2)cc1O` [Compound 12, 6-methoxy-7-hydroxy-2-[2-(3-hydroxy-4-methoxyphenyl)ethyl]chromone] are less than 30% and less than 30%.
The matching figures for `COc1ccc(CCc2cc(=O)c3cc(O)c(OC)cc3o2)cc1O` [Compound 13, 6-hydroxy-7-methoxy-2-[2-(3-hydroxy-4-methoxyphenyl)ethyl]chromone]: 53.4 ± 0.7% and less than 30%.
As to `COc1ccc(CCc2cc(=O)c3cc(O)cc(O)c3o2)cc1` [Compound 14, 6,8-dihydroxy-2-[2-(4-methoxyphenyl)ethyl]chromone], the inhibition at 100 µM on tyrosinase [1] is 65 ± 1.8%. Moreover, the “type of inhibition of tyrosinase” value on tyrosinase [4] (Lineweaver-Burk plot) is listed as “mixed type inhibitors”. For the same compound, the “inhibition constant KIS, binding with enzyme-substrate complex (tyrosinase)” value on tyrosinase [4] (secondary re-plot of y intercept vs. inhibitor) was determined as 72.8 µM. For the same compound, the inhibition at 750 µM at α-glucosidase [2] is less than 30%.
In the case of `O=c1cc(CCc2ccccc2)oc2c1C(O)C(O)C(O)C2Cl` (centres unmarked) [Compound 15, 8-chloro-2–(2-phenylethyl)-5,6,7-trihydroxy-5,6,7,8-tetrahydrochromone], at tyrosinase [1], the inhibition at 100 µM turned out to be 34.8 ± 1.4%. Further, on α-glucosidase [2], the inhibition at 750 µM is less than 30%.
In the case of `COc1ccc(CCc2cc(=O)c3c(o2)C(Cl)C(O)C(O)C3O)cc1` (centres unmarked) [Compound 16, 8-chloro-2–(2-(4-methoxyphenyl)ethyl)-5,6,7-trihydroxy-5,6,7,8-tetrahydrochromone], the inhibition at 100 µM on tyrosinase [1] was less than 30%. For the same compound, the inhibition at 750 µM at α-glucosidase [2] was less than 30%.
Consider `C[C@H]1O[C@H](O[C@H]2[C@H](O)[C@@H](O)[C@@H](O[C@H]3[C@H](O)[C@@H](O)C(O)O[C@@H]3CO)O[C@@H]2CO)[C@H](O)[C@@H](O)[C@@H]1N[C@H]1C=C(CO)[C@@H](O)[C@H](O)[C@H]1O` (some centres unmarked) [acarbose, reference compound], for which the “α-glucosidase inhibitory activity 750 μM (%)” value at α-glucosidase [2] (750 μM, means ± SD, three individual experiments) was determined as 50.7 ± 1.2%. The α-glucosidase inhibition rate at α-glucosidase [2] (concentration of 50 µg/mL) is reported as 62.06 ± 4.77%.
